Data as given in patent US8075922B2, “Method of co-infusing a deoxygenated hemoglobin containing blood substitute and inorganic nitrite” (Montana State University-Bozeman, priority 2002, dated 2011).

Tested on: human patient
Conditions: sodium nitrite in phosphate buffered saline infused at 1 micromole per minute, begun before red blood cell transfusion

With `O=NO` [sodium nitrite] the “adverse effect of red blood cell transfusion” value was “without adverse effect”.
